Measured values reported in PubChem BioAssay (NCI).
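Dose response: 5 concentrations. Exposure: 48 h. Format: 96-well plates. Endpoint: linear interpolation; highest concentration if not reached. At the GI50, growth is halved. TGI denotes the concentration required for complete inhibition of growth.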

How the values were obtained:
Experiment in all cases: growth of human tumour cells (NCI), 48 h
UACC-257 melanoma = tested on: UACC-257 melanoma
SW-620 colon = tested on: SW-620 colon
SK-MEL-2 melanoma = tested on: SK-MEL-2 melanoma
KM12 colon = tested on: KM12 colon
MOLT-4 leukemia = tested on: MOLT-4 leukemia
OVCAR-3 ovarian = tested on: OVCAR-3 ovarian
HT29 colon = tested on: HT29 colon
SNB-19 CNS = tested on: SNB-19 CNS
EKVX NSCLC = tested on: EKVX NSCLC
SF-539 CNS = tested on: SF-539 CNS

SMILES	TGI (UACC-257 melanoma) [µM]	TGI (SW-620 colon) [µM]	TGI (SK-MEL-2 melanoma) [µM]	TGI (KM12 colon) [µM]	TGI (MOLT-4 leukemia) [µM]	TGI (OVCAR-3 ovarian) [µM]	TGI (HT29 colon) [µM]	TGI (SNB-19 CNS) [µM]	TGI (EKVX NSCLC) [µM]	TGI (SF-539 CNS) [µM]	GI50 (EKVX NSCLC) [µM]	GI50 (UACC-257 melanoma) [µM]	GI50 (SW-620 colon) [µM]	GI50 (SK-MEL-2 melanoma) [µM]	GI50 (KM12 colon) [µM]	GI50 (MOLT-4 leukemia) [µM]	GI50 (OVCAR-3 ovarian) [µM]	GI50 (HT29 colon) [µM]	GI50 (SF-539 CNS) [µM]	GI50 (SNB-19 CNS) [µM]
CC(C)(C)[Si](C)(C)OCC1OC(n2cnc3c(N)ncnc32)CC1O (stereo not drawn)	> 100	> 100	> 100	> 100	> 100	> 100	> 100	> 100												
c1coc(CNc2ncnc3[nH]ncc23)c1	> 100	> 100	> 100	> 100	> 100	> 100	> 100	> 100	> 100	> 100										
O=C1NC2=C(CCCC/C2=N\O)C12CCCCC2	> 100	> 100		> 100	> 100	> 100	> 100	> 100	> 100	> 100										
Brc1ccc(C2CC(c3cccc4ccccc34)=Nc3ccccc3S2)cc1 (stereo not drawn)	> 100	34	> 100	> 100	> 100		> 100	> 100	> 100	> 100										
O=C1CSC(=S)N1	> 100	> 100	> 100	> 100	> 100	> 100		> 100	> 100	> 100										
CC(=O)c1ccc2c(c1)c1c(C)c3c[n+](C)ccc3c(C)c1n2C	36.2	> 85.4	22.6	> 100	20.8	> 65.6	> 100	5.74	> 100	13.9										
CCOC(=O)NC(Nc1ncccn1)(C(=O)OCC)C(F)(F)F (stereo not drawn)	> 100	> 100	> 100	> 100	> 100	> 100	> 100	> 100	> 100	> 100										
N#CN=[N+]([O-])c1ccc(C(=O)O)cc1	32.7	36.6	33.6	> 100		29.7	46.3	29.8	35.8	32.4										
Cc1cc(C)n(-c2nsc3ccccc23)n1	> 100	> 100	> 100	> 100	> 100	> 100	> 100	> 100	> 100	> 100										
Cc1ccc2c(c1)C(=O)N(N(C)C)CC(=O)N2	> 100	> 100	> 100	> 100	> 100	> 100	> 100	> 100	> 100	> 100										
Fc1ccc(C2CC(c3cccc(Nc4ccncc4)c3)=NN2c2ccc(Cl)cc2)cc1 (stereo not drawn)	4.15	3.09	3.73	3.33	5.33	3.07	4.44	3.07	6.33	3.07	2.11	2	1.64	1.89	1.68	2.12	1.62	1.99	1.65	1.65
CSc1nc(NC2OCC(O)C(O)C2O)c(N)c(=O)[nH]1 (stereo not drawn)	> 100	> 100	> 100	> 100	> 100	> 100	> 100	> 100	> 100	> 100										
Cc1cc2c(cc1C)OC(=O)CC2	> 100	> 100	> 100	> 100	> 100	> 100	> 100		> 100	> 100										
